These compounds were tested against T1, human M4 muscarinic acetylcholine receptor (Homo sapiens, UniProt P08173) (assay: human FLIPR-based M4 PAM assay (CHO-K1 cells with human M4 receptor and Gαqi5, calcium dye fluorescence)). Conditions: inflection point of 4 parameter logistic fit; acetylcholine added at 20% of maximum response; read-out: M4PAM IP.
T1 construct: expressed in transfected cells
T1 sequence (P08173 1-479): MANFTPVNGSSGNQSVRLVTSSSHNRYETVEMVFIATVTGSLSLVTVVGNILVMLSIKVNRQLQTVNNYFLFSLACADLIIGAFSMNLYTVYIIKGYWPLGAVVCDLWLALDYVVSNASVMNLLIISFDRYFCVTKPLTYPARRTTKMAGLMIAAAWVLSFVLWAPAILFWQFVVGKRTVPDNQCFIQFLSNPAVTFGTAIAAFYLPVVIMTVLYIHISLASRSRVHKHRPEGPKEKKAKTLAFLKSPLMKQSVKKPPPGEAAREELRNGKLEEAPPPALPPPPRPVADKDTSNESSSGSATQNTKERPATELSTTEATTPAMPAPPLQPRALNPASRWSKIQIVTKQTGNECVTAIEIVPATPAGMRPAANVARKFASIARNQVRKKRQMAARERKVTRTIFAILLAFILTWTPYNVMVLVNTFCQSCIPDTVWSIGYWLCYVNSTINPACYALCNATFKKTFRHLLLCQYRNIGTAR
Assay type: cell-based
How it was run: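 CHO-K1 cells were loaded with calcium dye at 37 °C for ~1 h. Fluorescence (ex 470–495/em 515–575 nm) was read for 4 min after test compound at increasing concentrations, then 3.5 min after acetylcholine at an EC20; sometimes a third addition at EC70 followed. The value is the inflection point of a 4-parameter logistic fit.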

Row | Compound | EC50
1 | Cc1cn2ccc(-c3nc(C#N)ccc3-c3cnn(CC(F)(F)C(F)F)c3)cc2n1 [Example 22, 6-(2-methylimidazo[1,2-a]pyridin-7-yl)-5-[1-(2,2,3,3-tetrafluoropropyl)-1H-pyrazol-4-yl]pyridine-2-carbonitrile] | 202 nM
2 | CCC(C)(C)Cn1cc(-c2ccc(C#N)nc2-c2ccn3ccnc3c2)cn1 [Example 91, 5-[1-(2,2-dimethylbutyl)-1H-pyrazol-4-yl]-6-imidazo[1,2-a]pyridin-7-ylpyridine-2-carbonitrile] | 17.1 nM
3 | Cc1nc2cc(-c3nc(C#N)ccc3-c3cnn(CCC(C)(F)F)c3)ccc2n1C [Example 27, 5-[1-(3,3-difluorobutyl)-1H-pyrazol-4-yl]-6-(1,2-dimethyl-1H-benzimidazol-5-yl)pyridine-2-carbonitrile] | 74 nM
4 | CC(C)(C#N)Cn1cc(-c2ccc(C#N)nc2-c2ccn3ccnc3c2)cn1 [Example 46, 5-[1-(2-cyano-2-methylpropyl)-1H-pyrazol-4-yl]-6-imidazo[1,2-a]pyridin-7-ylpyridine-2-carbonitrile] | 242 nM
5 | CC(C)C1(Cn2cc(-c3ccc(C#N)nc3-c3ccn4ccnc4c3)cn2)CC1 [Example 36, 6-imidazo[1,2-a]pyridin-7-yl-5-(1-{[1-(1-methylethyl)cyclo-propyl]methyl}-1H-pyrazol-4-yl)pyridine-2-carbonitrile] | 37.4 nM
6 | Cn1cnc2cc(-c3nc(C#N)ccc3-c3cnn(CC4(C)CCOCC4)c3)ccc21 [Example 38, 6-(1-methyl-1H-benzimidazol-5-yl)-5-{1-[(4-methyltetrahydro-2H-pyran-4-yl)methyl]-1H-pyrazol-4-yl}pyridine-2-carbonitrile] | 165 nM
7 | Cc1ccc(-c2cnn(CCC(C)(C)F)c2)c(-c2ccc3c(c2)C(=O)N(C)C3)n1 [Example 9, 6-{3-[1-(3-fluoro-3-methylbutyl)-1H-pyrazol-4-yl]-6-methylpyridin-2-yl}-2-methyl-2,3-dihydro-1H-isoindol-1-one] | 80.8 nM
8 | Cc1cn2ncc(-c3nc(C#N)ccc3-c3cnn(CC(C)(C)C(F)(F)F)c3)cc2n1 [Example 39, 6-(2-methylimidazo[1,2-b]pyridazin-7-yl)-5-[1-(3,3,3-trifluoro-2,2-dimethylpropyl)-1H-pyrazol-4-yl]pyridine-2-carbonitrile] | 75.8 nM
9 | Cc1ccc(-c2cnn(CC3(C)CCCCC3)c2)c(-c2ccc3c(C)n[nH]c3c2)n1 [Example 4, 3-methyl-6-(6-methyl-3-{1-[(1-methylcyclohexyl)methyl]-1H-pyrazol-4-yl}pyridin-2-yl)-1H-indazole] | 69.9 nM
10 | CC(C)(C)Cn1cc(-c2ccc(C#N)nc2-c2ccn3ccnc3c2)cn1 [Example 48, 5-[1-(2,2-dimethylpropyl)-1H-pyrazol-4-yl]-6-imidazo[1,2-a]pyridin-7-ylpyridine-2-carbonitrile] | 29.7 nM
11 | Cc1nc2cc(-c3nc(C#N)ccc3-c3cnn(CC(C)(F)F)c3)ccc2n1C [Example 31, 5-[1-(2,2-difluoropropyl)-1H-pyrazol-4-yl]-6-(1,2-dimethyl-1H-benzimidazol-5-yl)pyridine-2-carbonitrile] | 163 nM
12 | Cc1cn2ccc(-c3nc(C#N)ccc3-c3cnn(CC(C)(C)C)c3)cc2n1 [Example 81, 5-[1-(2,2-dimethylpropyl)-1H-pyrazol-4-yl]-6-(2-methylimidazo[1,2-a]pyridin-7-yl)pyridine-2-carbonitrile] | 24.7 nM
13 | CC(C)(C)Cn1cc(-c2ccc(C#N)nc2-c2ccc3nn[nH]c3c2)cn1 [Example 79, 6-(1H-benzotriazol-6-yl)-5-[1-(2,2-dimethylpropyl)-1H-pyrazol-4-yl]pyridine-2-carbonitrile] | 38.4 nM
14 | CC(C)(C)Cn1cc(-c2ccc(C#N)nc2-c2ccn3cc(C(F)F)nc3c2)cn1 [Example 64, 6-[2-(difluoromethyl)imidazo [1,2-a]pyridin-7-yl]-5-[1-(2,2-dimethylpropyl)-1H-pyrazol-4-yl]pyridine-2-carbonitrile] | 14.6 nM
15 | CC(C)(C)Cn1cc(-c2ccc(C#N)nc2-c2ccc3cnnn3c2)cn1 [Example 84, 5-[1-(2,2-dimethylpropyl)-1H-pyrazol-4-yl]-6-[1,2,3]triazolo[1,5-a]pyridin-6-ylpyridine-2-carbonitrile] | 235 nM
16 | Cc1ccc(-c2cnn(CC3(C)CCCCC3)c2)c(-c2ccc3cn[nH]c3c2)n1 [Example 3, 6-(6-methyl-3-{1-[(1-methylcyclohexyl)methyl]-1H-pyrazol-4-yl}pyridin-2-yl)-1H-indazole] | 66.6 nM
17 | CC(C)(C)Cn1cc(-c2ccc(C#N)nc2-c2ccn3nc(CO)nc3c2)cn1 [Example 73, 5-[1-(2,2-dimethylpropyl)-1H-pyrazol-4-yl]-6-[2-(hydroxymethyl)[1,2,4]triazolo[1,5-a]pyridin-7-yl]pyridine-2-carbonitrile] | 126 nM
18 | CC(C)CCn1cc(-c2cc(Cl)cnc2-c2ccc3scnc3c2)cn1 [Example 78, 5-{5-chloro-3-[1-(3-methylbutyl)-1H-pyrazol-4-yl]pyridin-2-yl}-1,3-benzothiazole] | 204 nM
19 | N#Cc1ccc(-c2cnn(CC3CCC3)c2)c(-c2ccn3ccnc3c2)n1 [Example 93, 5-[1-(cyclobutylmethyl)-1H-pyrazol-4-yl]-6-imidazo[1,2-a]pyridin-7-ylpyridine-2-carbonitrile] | 27.5 nM
20 | Cc1ccc(-c2cnn(CC34CC(C3)C4)c2)c(-c2ccc3c(c2)C(=O)NC3)n1 [Example 8, 6-{3-[1-(bicyclo[1.1.1]pent-1-ylmethyl)-1H-pyrazol-4-yl]-6-methylpyridin-2-yl}-2,3-dihydro-1H-isoindol-1-one] | 26.6 nM

Second part, the compound after the results:

Row | EC50 | Compound
21 | 40.8 nM | CC(C)(C)Cn1cc(-c2ccc(C(F)F)nc2-c2ccn3ccnc3c2)cn1 [Example 98, 7-{6-(difluoromethyl)-3-[1-(2,2-dimethylpropyl)-1H-pyrazol-4-yl]pyridin-2-yl}imidazo[1,2-a]pyridine]
22 | 55.9 nM | Cc1cn2ccc(-c3nc(C#N)ccc3-c3cnn(CCC(C)(C)F)c3)cc2n1 [Example 119, 5-[1-(3-fluoro-3-methylbutyl)-1H-pyrazol-4-yl]-6-(2-methylimidazo[1,2-a]pyridin-7-yl)pyridine-2-carbonitrile]
23 | 48 nM | Cc1nc2cc(-c3nc(C#N)ccc3-c3cnn(C[C@]4(F)C[C@@H](F)C4)c3)ccc2n1C [Example 128, 5-(1-(((1s,3s)-1,3-difluorocyclobutyl)methyl)-1H-pyrazol-4-yl)-6-(1,2-dimethyl-1H-benzo[d]imidazol-5-yl)picolinonitrile]
24 | 197 nM | Cc1ccc(-c2cnn(CC(C)C)c2)c(-c2ccc3c(c2)C(=O)N(C2CC2)C3)n1 [Example 96, 2-cyclopropyl-6-{6-methyl-3-[1-(2-methylpropyl)-1H-pyrazol-4-yl]pyridin-2-yl}-2,3-dihydro-1H-isoindol-1-one]
25 | 161 nM | Cc1cn2ccc(-c3nc(C#N)ccc3-c3cnn(CC(C)(O)C(F)(F)F)c3)cc2n1 (centres unmarked) [Example 125, 6-(2-methylimidazo[1,2-a]pyridin-7-yl)-5-(1-(3,3,3-trifluoro-2-hydroxy-2-methylpropyl)-1H-pyrazol-4-yl)picolinonitrile]
26 | 162 nM | Cc1cc(-c2cnn(CC3(C(F)(F)F)CC3)c2)c(-c2ccn3ccnc3c2)nc1C [Example 139, 7-[5,6-dimethyl-3-(1-{[1-(trifluoromethyl)cyclopropyl]methyl}-1H-pyrazol-4-yl)pyridin-2-yl]imidazo[1,2-a]pyridine]
27 | 211 nM | CC(C)(C)Cn1cc(-c2ccc(OC(F)(F)F)nc2-c2ccn3ccnc3c2)cn1 [Example 100, 7-{3-[1-(2,2-dimethylpropyl)-1H-pyrazol-4-yl]-6-(trifluoromethoxy)pyridin-2-yl}imidazo [1,2-a]pyridine]
28 | 59.9 nM | Cc1cc(-c2cnn(CC3(C(F)(F)F)CC3)c2)c(-c2ccn3ccnc3c2)nc1C#N [Example 138, 6-imidazo[1,2-a]pyridin-7-yl-3-methyl-5-(1-{[1-(trifluoromethyl)cyclopropyl]methyl}-1H-pyrazol-4-yl)pyridine-2-carbonitrile]
29 | 23.6 nM | CC1(Cn2cc(-c3ccc(C#N)nc3-c3ccn4ccnc4c3)cn2)CCC1 [Example 94, 6-imidazo[1,2-a]pyridin-7-yl-5-{1-[(1-methylcyclobutyl)methyl]-1H-pyrazol-4-yl}pyridine-2-carbonitrile]
30 | 31.7 nM | CN1Cc2ccc(-c3nc(Cl)ccc3-c3cnn(CC4CCCCC4)c3)cc2C1=O [Example 115, 6-{6-chloro-3-[1-(cyclohexylmethyl)-1H-pyrazol-4-yl]pyridin-2-yl}-2-methyl-2,3-dihydro-1H-isoindol-1-one]
31 | 45 nM | CN1Cc2ccc(-c3nc(C#N)ccc3-c3cnn(CC(C)(C)C(F)F)c3)cc2C1=O [Example 97, 5-[1-(3,3-difluoro-2,2-dimethylpropyl)-1H-pyrazol-4-yl]-6-(2-methyl-3-oxo-2,3-dihydro-1H-isoindol-5-yl)pyridine-2-carbonitrile]
32 | 33.4 nM | CC(C)(C)Cn1cc(-c2ccc(C#N)nc2-c2ccn3c(Cl)cnc3c2)cn1 [Example 117, 6-(3-chloroimidazo[1,2-a]pyridin-7-yl)-5-(1-neopentyl-1H-pyrazol-4-yl)picolinonitrile]

Source: patent publication US11339156B2, “3-(1H-pyrazol-4-yl)pyridine allosteric modulators of the M4 muscarinic acetylcholine receptor” (Merck Sharp & Dohme Corp., priority 2017, dated 2022)
